Assay results: ChEMBL document CHEMBL3091415, “Aza-cycloisodityrosine analogue of RA-VII, an antitumor bicyclic hexapeptide” (Bioorg Med Chem Lett, 2013)
In brackets after ≈: the same amount, converted by molar mass.

Legend:
HL-60 = experiment: Cytotoxicity against human HL60 cells after 48 hrs by MTT assay; format: functional, cell-based; settings: HL-60, 48 h
HCT-116 = experiment: Cytotoxicity against human HCT116 cells after 48 hrs by MTT assay; format: functional, cell-based; settings: HCT-116, 48 h

| SMILES | IC50 (HL-60) | IC50 (HCT-116) |
| --- | --- | --- |
| COc1ccc(C[C@H]2C(=O)N[C@@H](C)C(=O)N(C)[C@H]3Cc4ccc(cc4)Oc4cc(ccc4OC)C[C@@H](C(=O)N[C@H](C)C(=O)N[C@@H](C)C(=O)N2C)N(C)C3=O)cc1 | 0.0025 µg/mL (≈ 0.00324 µM) | 0.0033 µg/mL (≈ 0.00428 µM) |
| COc1ccc(C[C@H]2C(=O)N[C@@H](C)C(=O)N(C)[C@H]3Cc4ccc(cc4)Nc4cc(ccc4OC)C[C@@H](C(=O)N[C@H](C)C(=O)N[C@@H](C)C(=O)N2C)N(C)C3=O)cc1 | 0.018 µg/mL (≈ 0.0234 µM) | 0.017 µg/mL (≈ 0.0221 µM) |
